Measurements taken from patent US8492387B2, “2-aminoimidazole beta-secretase inhibitors for the treatment of alzheimer's disease” (Merck, Sharp & Dohme, Corp., priority 2008, dated 2013).

Target: BACE 1 (beta-secretase enzyme) (Homo sapiens (Human), UniProt P56817)
Test: ECL Assay (homogeneous end point electrochemiluminescence assay with biotinylated BACE substrate)
Type: biochemical
Conditions: soluble human enzyme, pH 6.5, rt
Description: Enzyme inhibition is determined as follows.
ECL Assay: A homogeneous end point electrochemiluminescence (ECL) assay is performed using a biotinylated BACE substrate. The Km of the substrate is approximated at 50 μM. A typical reaction contains approximately 0.6 nM enzyme, 0.25 μM of the substrate, and buffer (50 mM Pipes, pH 6.5, 0.1 mg/ml BSA, 0.2% CHAPS, 15 mM EDTA and 1 mM deferoxamine) in a total reaction volume of 100 μl. The reaction proceeds for 1-2 hrs and is then stopped by the addition of 150 μL of a quench cocktail solution ([…], pH 8.0, 50 μL INC buffer (2% BSA, 0.2% Tween-20 and 0.05% sodium azide diluted in phosphate buffered saline (PBS) plus 75 μL, PBS), containing streptavadin coated magnetic beads and ruthenylated antibody which specifically recognizes the C-terminal residue of the product. The samples are subjected to M-384 (Igen Inc., Gaithersburg, Md.) analysis. Under these conditions, less than 10% of substrate is processed by BACE 1. The enzyme used in these studies is soluble (transmembrane domain and cytoplasmic extension excluded) human protein produced in a baculovirus expression system. To measure the inhibitory potency for compounds, 10 concentrations of inhibitors are prepared starting from 200 μM with three fold series dilution. Solutions of the inhibitor in DMSO are included in the reaction mixture (final DMSO concentration is 10%). All experiments are conducted at rt using the standard reaction conditions described above. To determine the IC50 of the compound, a four parameter equation is used for curve fitting. The errors in reproducing the dissociation constants are typically less than two-fold.

BACE 1 (beta-secretase enzyme), sequence (P56817 46-457): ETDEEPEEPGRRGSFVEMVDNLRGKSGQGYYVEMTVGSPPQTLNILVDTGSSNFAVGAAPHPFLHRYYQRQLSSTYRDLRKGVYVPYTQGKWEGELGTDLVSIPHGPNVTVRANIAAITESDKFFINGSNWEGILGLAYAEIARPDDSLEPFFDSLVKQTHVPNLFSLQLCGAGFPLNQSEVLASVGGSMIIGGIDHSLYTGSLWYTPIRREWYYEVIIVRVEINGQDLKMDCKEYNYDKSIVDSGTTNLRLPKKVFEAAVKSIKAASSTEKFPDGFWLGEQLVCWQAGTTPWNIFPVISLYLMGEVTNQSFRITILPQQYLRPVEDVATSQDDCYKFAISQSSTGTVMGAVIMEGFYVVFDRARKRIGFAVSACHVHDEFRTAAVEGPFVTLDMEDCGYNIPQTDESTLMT

| IC50 [µM] | Structure (SMILES) |
| --- | --- |
| 12 | Cn1cc(C2(Cc3ccccc3)CCc3ccccc32)nc1N (centres unmarked) [Example 3, 4-(1-benzyl-2,3-dihydro-1H-inden-1-yl)-1-methyl-1H-imidazol-2-amine] |
| 27 | COc1ccc(C2(c3cn(C)c(N)n3)CCCCC2)cc1 [Example 41, 4-[1-(4-methoxyphenyl)cyclohexyl]-1-methyl-1H-imidazol-2-amine] |
| 17 | COc1ccc(C(Cc2ccc(-c3ccc(O)nc3)cc2)c2cn(C)c(N)n2)cc1 (centres unmarked) [Example 55, 5-{4-[2-(2-amino-1-methyl-1H-imidazol-4-yl)-2-(4-methoxyphenyl)ethyl]phenyl}pyridin-2-ol] |
| 0.063 | COc1ccc2c(c1)CCC2(Cc1ccc(C(F)(F)F)nc1)c1cn(Cc2ccccc2)c(N)n1 (centres unmarked) [Example 114, 1-benzyl-4-(5-methoxy-1-{[6-(trifluoromethyl)pyridin-3-yl]methyl}-2,3-dihydro-1H-inden-1-yl)-1H-imidazol-2-amine] |
| 3.3 | COc1ccc2c(c1)CCC2(Cc1ccc(C(F)(F)F)nc1)c1cn(CCCO)c(N)n1 (centres unmarked) [Example 115, 3-[2-amino-4-(5-methoxy-1-{[6-(trifluoromethyl)pyridin-3-yl]methyl}-2,3-dihydro-1H-inden-1-yl)-1H-imidazol-1-yl]propan-1-ol] |

Continued, compound first:

| Structure (SMILES) | IC50 [µM] |
| --- | --- |
| COc1ccc([C@H](Cc2ccc(C(F)(F)F)cc2)c2nc(N)[nH]c2C(O)c2ccccc2)cc1 (stereo partly drawn) [Example 2, (2-amino-4-{(1S)-1-(4-methoxyphenyl)-2-[4-(trifluoromethyl)phenyl]ethyl}-1H-imidazole-5-yl) (phenyl)methanol] | 5 |
| COc1ccc(C(Cc2cccc(-c3ccc(C(F)(F)F)cc3Cl)c2)c2cn(C)c(N)n2)cc1 (centres unmarked) [Example 34, 4-[2-[2′-chloro-4′-(trifluoromethyl)biphenyl-3-yl]-1-(4-methoxyphenyl)ethyl]-1-methyl-1H-imidazol-2-amine] | 11 |
| COc1ccc2c(c1)CCC2(Cc1cc([N+](=O)[O-])ccc1OC)c1cn(C)c(N)n1 (centres unmarked) [Example 111, 4-[5-methoxy-1-(2-methoxy-5-nitrobenzyl)-2,3-dihydro-1H-inden-1-yl]-1-methyl-1H-imidazol-2-amine] | 3.2 |
